Measured values published in the supplement of paper PMC10307832.

What was measured:
Assay in all cases: relative viability (nuclei count vs DMSO), 5 days (fraction); higher = more cells survive
NCI-H2342 = test system: NCI-H2342
In short: (§1)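 Cells from lung cancer lines were seeded into 1536-well plates and, one day later, dosed by pin tool. Treatments were either a single drug or a fixed dose of an anchor drug with five library-drug doses (not always all listed) in √10 steps. After 5 days, nuclei were stained in a one-step fixation (final 0.05% Triton X-100, 1% formaldehyde, 1 ug/ml Hoechst) and counted on 4× images, and relative viability is the treated-to-vehicle nuclei ratio, as the median of duplicate plates.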

NCI-H358 = test system: NCI-H358
In short: as §1

NCI-H1703 = test system: NCI-H1703
In short: as §1

NCI-H1648 = test system: NCI-H1648
In short: as §1

NCI-H522 = test system: NCI-H522
In short: as §1

HCC-78 = test system: HCC-78
In short: as §1

NCI-H460 = test system: NCI-H460
In short: as §1

In the case of `CC(=O)O[C@@]12CO[C@@H]1C[C@H](O)[C@@]1(C)C(=O)[C@H](O)C3=C(C)[C@@H](OC(=O)[C@H](O)[C@@H](NC(=O)OC(C)(C)C)c4ccccc4)C[C@@](O)([C@@H](OC(=O)c4ccccc4)[C@H]21)C3(C)C` [Docetaxel] + NC(=O)Nc1cc(-c2cccc(F)c2)sc1C(=O)N[C@H]1CCCNC1 [AZD7762] (partner 0.2 µM), the relative viability (NCI-H2342; first compound 0.0002 µM) is reported as 0.46, the relative viability (NCI-H2342; first compound 0.000632 µM) is reported as 0.56 and the relative viability (NCI-H2342; first compound 0.002 µM) is reported as 0.405. The relative viability (NCI-H2342; first compound 0.006325 µM) was 0.41, the relative viability (NCI-H2342; first compound 0.02 µM) was 0.363 and the relative viability (NCI-H358; first compound 0.0002 µM) was 0.429. For the same compound, the relative viability (NCI-H358; first compound 0.000632 µM) was 0.328, the relative viability (NCI-H358; first compound 0.006325 µM) was 0.24 and the relative viability (NCI-H358; first compound 0.02 µM) was 0.159. It also gave a relative viability (NCI-H1703; first compound 0.000632 µM) of 0.121, a relative viability (NCI-H1703; first compound 0.002 µM) of 0.107 and a relative viability (NCI-H1703; first compound 0.006325 µM) of 0.114. For the same compound, the relative viability (NCI-H1703; first compound 0.02 µM) was 0.0729, the relative viability (NCI-H1648; first compound 0.0002 µM) was 0.589 and the relative viability (NCI-H1648; first compound 0.000632 µM) was 0.701. It also gave a relative viability (NCI-H1648; first compound 0.002 µM) of 0.431, a relative viability (NCI-H1648; first compound 0.006325 µM) of 0.248 and a relative viability (NCI-H1648; first compound 0.02 µM) of 0.217. The relative viability (NCI-H522; first compound 0.0002 µM) was 0.927, the relative viability (NCI-H522; first compound 0.000632 µM) was 1.08 and the relative viability (NCI-H522; first compound 0.002 µM) was 0.622. The relative viability (NCI-H522; first compound 0.006325 µM) was 0.484, the relative viability (NCI-H522; first compound 0.02 µM) was 0.373 and the relative viability (HCC-78; first compound 0.0002 µM) was 0.479. The relative viability (HCC-78; first compound 0.000632 µM) was 0.545, the relative viability (HCC-78; first compound 0.002 µM) was 0.318 and the relative viability (HCC-78; first compound 0.006325 µM) was 0.394. It also gave a relative viability (HCC-78; first compound 0.02 µM) of 0.364, a relative viability (NCI-H460; first compound 0.0002 µM) of 0.565 and a relative viability (NCI-H460; first compound 0.000632 µM) of 0.575. It also gave a relative viability (NCI-H460; first compound 0.002 µM) of 0.167, a relative viability (NCI-H460; first compound 0.006325 µM) of 0.0571 and a relative viability (NCI-H460; first compound 0.02 µM) of 0.0404.

Compound `Cc1sc2c(c1C)C(c1ccc(Cl)cc1)=N[C@@H](CC(=O)OC(C)(C)C)c1nnc(C)n1-2` [JQ1] + NC(=O)Nc1cc(-c2cccc(F)c2)sc1C(=O)N[C@H]1CCCNC1 [AZD7762] (partner 0.2 µM) has a relative viability (NCI-H2342; first compound 0.04 µM) of 0.544, a relative viability (NCI-H2342; first compound 0.1265 µM) of 0.475 and a relative viability (NCI-H2342; first compound 0.4 µM) of 0.588. It also gave a relative viability (NCI-H2342; first compound 1.265 µM) of 0.465, a relative viability (NCI-H2342; first compound 4 µM) of 0.4 and a relative viability (NCI-H358; first compound 0.04 µM) of 0.524. For the same compound, the relative viability (NCI-H358; first compound 0.1265 µM) was 0.565, the relative viability (NCI-H358; first compound 0.4 µM) was 0.538 and the relative viability (NCI-H358; first compound 1.265 µM) was 0.344. It also gave a relative viability (NCI-H358; first compound 4 µM) of 0.232, a relative viability (NCI-H1703; first compound 0.04 µM) of 0.111 and a relative viability (NCI-H1703; first compound 0.1265 µM) of 0.13. It also gave a relative viability (NCI-H1703; first compound 0.4 µM) of 0.155, a relative viability (NCI-H1703; first compound 1.265 µM) of 0.108 and a relative viability (NCI-H1703; first compound 4 µM) of 0.118. For the same compound, the relative viability (NCI-H1648; first compound 0.04 µM) was 0.862, the relative viability (NCI-H1648; first compound 0.1265 µM) was 0.906 and the relative viability (NCI-H1648; first compound 0.4 µM) was 0.579. It also gave a relative viability (NCI-H1648; first compound 1.265 µM) of 0.376, a relative viability (NCI-H1648; first compound 4 µM) of 0.388 and a relative viability (NCI-H522; first compound 0.04 µM) of 0.974. The relative viability (NCI-H522; first compound 0.1265 µM) was 0.685, the relative viability (NCI-H522; first compound 0.4 µM) was 0.774 and the relative viability (NCI-H522; first compound 1.265 µM) was 0.52. The relative viability (NCI-H522; first compound 4 µM) was 0.397, the relative viability (HCC-78; first compound 0.04 µM) was 0.762 and the relative viability (HCC-78; first compound 0.1265 µM) was 0.574. It also gave a relative viability (HCC-78; first compound 0.4 µM) of 0.559, a relative viability (HCC-78; first compound 1.265 µM) of 0.421 and a relative viability (HCC-78; first compound 4 µM) of 0.208. For the same compound, the relative viability (NCI-H460; first compound 0.04 µM) was 0.594, the relative viability (NCI-H460; first compound 0.1265 µM) was 0.327 and the relative viability (NCI-H460; first compound 0.4 µM) was 0.644. It also gave a relative viability (NCI-H460; first compound 1.265 µM) of 0.443 and a relative viability (NCI-H460; first compound 4 µM) of 0.106.

For `Nc1ccn([C@@H]2O[C@H](CO)[C@@H](O)[C@@H]2O)c(=O)n1` [Cytarabine] + NC(=O)Nc1cc(-c2cccc(F)c2)sc1C(=O)N[C@H]1CCCNC1 [AZD7762] (partner 0.2 µM), the relative viability (NCI-H2342; first compound 0.005 µM) was 0.472, the relative viability (NCI-H2342; first compound 0.01581 µM) was 0.385 and the relative viability (NCI-H2342; first compound 0.05 µM) was 0.397. For the same compound, the relative viability (NCI-H2342; first compound 0.1581 µM) was 0.377, the relative viability (NCI-H2342; first compound 0.5 µM) was 0.301 and the relative viability (NCI-H358; first compound 0.005 µM) was 0.419. The relative viability (NCI-H358; first compound 0.01581 µM) was 0.229, the relative viability (NCI-H358; first compound 0.05 µM) was 0.208 and the relative viability (NCI-H358; first compound 0.1581 µM) was 0.221. For the same compound, the relative viability (NCI-H358; first compound 0.5 µM) was 0.182, the relative viability (NCI-H1703; first compound 0.005 µM) was 0.108 and the relative viability (NCI-H1703; first compound 0.01581 µM) was 0.121. For the same compound, the relative viability (NCI-H1703; first compound 0.05 µM) was 0.103, the relative viability (NCI-H1703; first compound 0.1581 µM) was 0.124 and the relative viability (NCI-H1703; first compound 0.5 µM) was 0.13. It also gave a relative viability (NCI-H1648; first compound 0.005 µM) of 0.647, a relative viability (NCI-H1648; first compound 0.01581 µM) of 0.882 and a relative viability (NCI-H1648; first compound 0.05 µM) of 0.73. It also gave a relative viability (NCI-H1648; first compound 0.1581 µM) of 0.527, a relative viability (NCI-H1648; first compound 0.5 µM) of 0.401 and a relative viability (NCI-H522; first compound 0.005 µM) of 0.827. For the same compound, the relative viability (NCI-H522; first compound 0.01581 µM) was 0.605, the relative viability (NCI-H522; first compound 0.05 µM) was 0.72 and the relative viability (NCI-H522; first compound 0.1581 µM) was 0.426. For the same compound, the relative viability (NCI-H522; first compound 0.5 µM) was 0.34, the relative viability (HCC-78; first compound 0.005 µM) was 0.614 and the relative viability (HCC-78; first compound 0.01581 µM) was 0.779. It also gave a relative viability (HCC-78; first compound 0.05 µM) of 0.486, a relative viability (HCC-78; first compound 0.1581 µM) of 0.374 and a relative viability (HCC-78; first compound 0.5 µM) of 0.314. For the same compound, the relative viability (NCI-H460; first compound 0.005 µM) was 0.209, the relative viability (NCI-H460; first compound 0.01581 µM) was 0.0904 and the relative viability (NCI-H460; first compound 0.05 µM) was 0.0497. The relative viability (NCI-H460; first compound 0.1581 µM) was 0.0319 and the relative viability (NCI-H460; first compound 0.5 µM) was 0.0286.

`COc1cc2nccc(Oc3ccc(NC(=O)Nc4cc(C)on4)c(Cl)c3)c2cc1OC` [Tivozanib] + NC(=O)Nc1cc(-c2cccc(F)c2)sc1C(=O)N[C@H]1CCCNC1 [AZD7762] (partner 0.2 µM) gave a relative viability (NCI-H2342; first compound 0.005 µM) of 0.492, a relative viability (NCI-H2342; first compound 0.01581 µM) of 0.431 and a relative viability (NCI-H2342; first compound 0.05 µM) of 0.609. It also gave a relative viability (NCI-H2342; first compound 0.5 µM) of 0.414, a relative viability (NCI-H358; first compound 0.005 µM) of 0.449 and a relative viability (NCI-H358; first compound 0.01581 µM) of 0.621. It also gave a relative viability (NCI-H358; first compound 0.05 µM) of 0.552, a relative viability (NCI-H358; first compound 0.1581 µM) of 0.513 and a relative viability (NCI-H358; first compound 0.5 µM) of 0.469. For the same compound, the relative viability (NCI-H1703; first compound 0.005 µM) was 0.124, the relative viability (NCI-H1703; first compound 0.01581 µM) was 0.112 and the relative viability (NCI-H1703; first compound 0.05 µM) was 0.139. It also gave a relative viability (NCI-H1703; first compound 0.1581 µM) of 0.143, a relative viability (NCI-H1703; first compound 0.5 µM) of 0.118 and a relative viability (NCI-H1648; first compound 0.005 µM) of 0.666. It also gave a relative viability (NCI-H1648; first compound 0.01581 µM) of 0.708, a relative viability (NCI-H1648; first compound 0.05 µM) of 0.693 and a relative viability (NCI-H1648; first compound 0.1581 µM) of 0.585. It also gave a relative viability (NCI-H1648; first compound 0.5 µM) of 0.695, a relative viability (NCI-H522; first compound 0.005 µM) of 0.903 and a relative viability (NCI-H522; first compound 0.01581 µM) of 0.793. It also gave a relative viability (NCI-H522; first compound 0.05 µM) of 0.784, a relative viability (NCI-H522; first compound 0.1581 µM) of 0.811 and a relative viability (NCI-H522; first compound 0.5 µM) of 0.857. For the same compound, the relative viability (HCC-78; first compound 0.005 µM) was 0.551, the relative viability (HCC-78; first compound 0.01581 µM) was 0.677 and the relative viability (HCC-78; first compound 0.05 µM) was 0.674. The relative viability (HCC-78; first compound 0.1581 µM) was 0.497, the relative viability (HCC-78; first compound 0.5 µM) was 0.657 and the relative viability (NCI-H460; first compound 0.005 µM) was 0.533. For the same compound, the relative viability (NCI-H460; first compound 0.01581 µM) was 0.689, the relative viability (NCI-H460; first compound 0.05 µM) was 0.651 and the relative viability (NCI-H460; first compound 0.1581 µM) was 0.566. For the same compound, the relative viability (NCI-H460; first compound 0.5 µM) was 0.471.
